Assay results taken from US8802104B2, “Parathyroid hormone receptor activation and stem and progenitor cell expansion” (The General Hospital Corporation, priority 2002, dated 2014).

Columns and labels:
peripheral blood cells = test: Complete blood count during cyclophosphamide chemotherapy cycles; assay type: in vivo, C57Bl/6 mice
Protocol: (§1) Wild-type C57Bl/6 mice were treated with 5 mg of cyclophosphamide (Day 1). The day following injection of cyclophosphamide, mice received no treatment or were treated for 8 days with G-CSF (5 μg/day), 11 days with PTH (80 μg/kg/day) or a combination of G-CSF plus PTH. Mice that received a combination of both G-CSF and PTH received G-CSF treatment for 8 days and PTH treatment for 11 days. Following this treatment protocol, mice were injected with cyclophosphamide on Day 15 and treated with G-CSF, PTH or G-CSF and PTH as described above. The treatment protocol was then repeated for two subsequent cycles, as outlined in FIG. 7.
During the course of the four treatment cycles, peripheral blood complete blood count (CBC) analysis was performed every 2 to 3 days. This analysis involved the collection of 100 μl of peripheral blood from the tail vein of the mice, which was subsequently analyzed on a HEMAVET 850FS (Drew Scientific). To avoid any deleterious effects from repeated tail bleeds, each individual mouse was only bled once per week.

[1] = tested on: hematopoietic progenitors (CFU-C); test: In vivo PTH administration: CFU-C assay; parameters: species or system C57Bl/6 mice; details: four weeks PTH; P=0.780, FIG. 5g
Protocol: Mononuclear cells were isolated from the bone marrow and cultured at 10^4 cells/ml in the following medium: 0.9% methylcellulose, 15% FBS, 1% BSA, 10 μg/ml rh insulin, 200 μg/ml human transferrin, 10^−4 M 2-mercaptoethanol, 2 mM L-glutamine, 50 ng/ml rmSCF, 10 ng/ml rmIL-3, 10 ng/ml rhIL-6 and 3 units/ml rhEpo (M3434; Stem Cell Technologies, Vancouver, Canada). At day 10, the total number of colonies were counted and reported as total CFU-Cs.
(§2) For PTH administration, 6-8 week old wild type C57/B male mice were used. Rat PTH (1-34) (80 μg/Kg of body weight) was injected intraperitoneally 5×/week for 4 weeks (n=5). Control mice (n=4) were injected with an equivalent volume of vehicle. At the end of the treatment period, ionized serum calcium was measured by the Ciba/Corning 634 Ca^++/pH analyzer, and, after euthanasia, the hind limbs and forelimbs were dissected and utilized for cytologic and histologic analysis.
As treatment of stromal cells with PTH led to an increase in the ability of the stromal cell population to support hematopoietic stem cells, it was investigated whether these effects could be recapitulated in vivo. Wild-type C57Bl/6 mice were injected daily with PTH using an intermittent dosing schedule known to increase osteoblasts, and the frequencies of LTC-ICs in the bone marrow were measured. […]

[2] = tested on: HSCs in the peripheral circulation; test: G-CSF mobilization of HSCs into peripheral circulation after chemotherapy; assay type: in vivo, C57Bl/6 mice
Protocol: as §1
At the end of the four-cycle treatment with cyclophosphamide and G-CSF/PTH, the bone marrow was removed from the treated mice and competitive transplants into B6.SJL mice were performed to measure the maintenance of the HSC pool in the bone marrow. This involved mixing 5×10^5 BM cells from the treated C57Bl/6 mice (CD45.2) with 2.5×10^5 BM cells from the B6.SJL mice (CD45.1). These cells were then injected into lethally irradiated B6.SJL mice. Eighteen weeks following injection of the cells, peripheral blood was collected from the mice and the relative contribution of the HSCs from the treated animals was measured by flow cytometry for the CD45.2^+ cells. To assess the ability of the HSCs to be mobilized into the peripheral circulation, one week following treatment mice were mobilized with G-CSF (5 μg/day) for 5 days. Peripheral blood (300 μl) was collected from these mice and mixed with 2.5×10^5 BM cells from a B6.SJL mouse. These cells were injected into a lethally irradiated B6.SJL host. Eighteen weeks following injection of the cells, peripheral blood was collected from the mice and the relative contribution of the HSCs from the treated animals was measured by flow cytometry for the CD45.2^+ cells.

[3] = parameters: species or system C57Bl/6 mice; details: mouse, in vivo
Protocol: as §2

Rat PTH (1-34)
WBC and NE counts following chemotherapy, effect of adding PTH (peripheral blood cells; PTH 80 μg/kg/day 11 days added to G-CSF): not altered
hematological response to chemotherapy (peripheral blood cells; mice that did not receive G-CSF, PTH or not): no differences
level of hematopoietic progenitors by CFU-C assay [1]: did not affect
mobilization of HSCs into the circulation with G-CSF ([2]; no supportive G-CSF during chemotherapy, prior PTH treatment): increased with prior PTH treatment
mobilization of HSCs into the peripheral circulation ([2]; supportive G-CSF with concurrent PTH): partially reversed
hypercalcemia by serum calcium measurements [3]: no evidence of hypercalcemia
